Patent US8148387B2, “AKT and P70 S6 kinase inhibitors” (Eli Lilly and Company, priority 2008, dated 2012)
Values joined by “and” are separate entries in the source; they are usually repeats but may differ in a detail not shown here. Equal entries are not always repeated.

Legend:
[1] = molecular target: T1, human HERG K+ channel (Homo sapiens, UniProt Q12809); experiment: HERG Assay, [3H]astemizole radioligand binding; settings: transfected HEK-293 cell membranes, 2 nM [3H]astemizole
T1 construct: expressed in transfected cells; host or cells: HEK-293
T1 sequence (Q12809 whole entry): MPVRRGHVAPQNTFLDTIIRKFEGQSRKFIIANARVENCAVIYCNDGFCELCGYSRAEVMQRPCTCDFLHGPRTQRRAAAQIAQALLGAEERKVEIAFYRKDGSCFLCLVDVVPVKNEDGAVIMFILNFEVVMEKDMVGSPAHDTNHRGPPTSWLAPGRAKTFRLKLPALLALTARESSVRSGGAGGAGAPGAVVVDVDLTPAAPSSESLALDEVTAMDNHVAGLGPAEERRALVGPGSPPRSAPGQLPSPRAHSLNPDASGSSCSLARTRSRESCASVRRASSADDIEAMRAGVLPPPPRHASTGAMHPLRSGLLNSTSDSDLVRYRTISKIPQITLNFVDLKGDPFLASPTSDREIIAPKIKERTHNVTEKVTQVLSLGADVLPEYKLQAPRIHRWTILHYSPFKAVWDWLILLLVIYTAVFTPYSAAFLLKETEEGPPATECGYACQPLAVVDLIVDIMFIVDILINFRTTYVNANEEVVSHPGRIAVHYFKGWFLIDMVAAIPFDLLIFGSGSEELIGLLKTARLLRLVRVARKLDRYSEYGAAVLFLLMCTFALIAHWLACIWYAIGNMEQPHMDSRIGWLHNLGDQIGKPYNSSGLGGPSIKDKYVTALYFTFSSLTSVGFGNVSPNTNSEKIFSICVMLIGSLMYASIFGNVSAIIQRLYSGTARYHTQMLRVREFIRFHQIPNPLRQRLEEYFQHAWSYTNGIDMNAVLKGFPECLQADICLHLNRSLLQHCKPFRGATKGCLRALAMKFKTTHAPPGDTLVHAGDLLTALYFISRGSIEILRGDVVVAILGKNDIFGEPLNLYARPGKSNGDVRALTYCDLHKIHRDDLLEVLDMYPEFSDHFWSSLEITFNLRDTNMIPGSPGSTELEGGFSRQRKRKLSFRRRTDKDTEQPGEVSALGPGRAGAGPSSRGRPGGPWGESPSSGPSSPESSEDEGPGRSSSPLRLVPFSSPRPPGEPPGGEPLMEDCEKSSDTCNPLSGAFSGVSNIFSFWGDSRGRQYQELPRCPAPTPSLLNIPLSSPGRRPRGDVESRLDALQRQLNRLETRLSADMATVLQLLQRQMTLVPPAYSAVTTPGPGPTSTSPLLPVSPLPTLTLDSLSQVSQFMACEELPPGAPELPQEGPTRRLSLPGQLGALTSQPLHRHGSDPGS
Protocol: Evaluation of the affinity of compounds for the human HERG K^+ channel in transfected HEK-293 cells is determined in a radioligand binding assay. Cell membrane homogenates (40 μg protein) are incubated for 75 min at 22° C. with 2 nM [^3H]astemizole in the absence or presence of the test compound in a buffer containing 50 mM Tris-HCl (pH 7.4), 10 mM KCl, 1.2 mM MgCl2 and 0.1% Bovine serum albumin (BSA). Nonspecific binding is determined in the presence of 10 μM astemizole. Following incubation, the samples are filtered rapidly under vacuum through glass fiber filters (GF/B, Packard) presoaked with 0.3% PEI and rinsed several times with ice-cold 50 mM Tris-HCl using a 96-sample cell harvester (Unifilter, Packard). The filters are dried then counted for radioactivity in a scintillation counter (Topcount, Packard) using a scintillation cocktail (Microscint 0, Packard). The results are expressed as a percent inhibition of the control radioligand specific binding. The standard reference compound is astemizole, which is tested in each experiment at several concentrations to obtain a competition curve from which its IC50 is calculated. (Finalayson et al, [^3H]dofetilide binding in SHSYSY and HEK293 cells expressing a HERG-like K^+ channels, Eur. J. Pharmacol., 412: 203 (2001)).

[2] = system: Calu6; experiment: Combination studies, fixed ratio method, cell proliferation, Calu6; format: cell-based
From the text: (§1) The combination studies use the fixed ratio method, where the compound of the present invention and the other therapeutic agent are present in fixed ratios of concentrations corresponding to the IC50 equivalents of single agents. The readout for the combination studies is cell proliferation in respective cell lines using Cell Titer Glo reagents. Controls are processed similarly but without the compound of the present invention or the other therapeutic agent. Analysis of the data is done according to the method described in Zhao et. al., Clinical Cancer Research, 10, 7994-8004 (2004) utilizing a web based tool. A combination index is calculated for a range of cell proliferation inhibition activity levels according to the equation below. Combination Index at activity level x=[Concentration of other therapeutic agent in the combination at the activity level x/ICx of the other therapeutic agent]+[Concentration of the compound of the present invention in the combination at the activity level x/ICx of the compound of the present invention] For clarity, Combination index values at 50% inhibition are summarized below.

[3] = system: H1155; experiment: Cell Proliferation Assay (CellTiter-Glo), H1155; format: cell-based; settings: Homo sapiens, NCI-H1155; H1155, 72 hr
Protocol: (§2) The proliferation assay uses the CellTiter-Glo Luminescent Cell Viability Assay System (commercially available from Promega) to determine the cell number of viable cells in culture based on quantitation of the ATP present, which signals the presence of metabolically active cells.
(§3) The cells are plated in 96-well plate at 2000 cells/well in volume of 50 μL medium (DMEM, 10% FBS, 25 mM HEPES, 1.0 mM Sodium Pyruvate, and 0.1 mM Non Essential Amino Acids) except column 1 with medium only as blank control. The plates are incubated overnight at 37° C. and 5% CO2. On the next day, compound stocks are prepared at 40 mM in DMSO (500×) and serially diluted in DMSO in a 96-well round bottom polypropylene plate. Compounds are assayed at 10 concentrations in duplicate, 4 compounds per plate.
(§4) 4 μL of the serial DMSO dilutions are transferred to a 96 deep-well plate and 1 mL complete culture medium is added to create 2× stock for dosing. 50 μL of each 2× dosing stock is gently transferred to the corresponding well of the cell plate resulting in a 0.2% DMSO concentration and a 100 μL final volume. […] medium are added to the Control columns (Column 12) and background columns (Column 1). Cells are incubated with compound for at 37° C., 5% CO2 for 72 hr. […]

[4] = system: NCIH460; experiment: Combination studies, fixed ratio method, cell proliferation, NCIH460; format: cell-based
From the text: as §1

[5] = system: OPM-2; experiment: Cell Proliferation Assay (CellTiter-Glo), OPM-2; format: cell-based; settings: Homo sapiens; OPM-2, 72 hr
Protocol: as §2, §3, §4

[6] = system: BT474; experiment: Cell Proliferation Assay (CellTiter-Glo), BT474; format: cell-based; settings: Homo sapiens, BT-474; BT474, 72 hr
Protocol: as §2, §3, §4

[7] = system: HCT116; experiment: Combination studies, fixed ratio method, cell proliferation, HCT116; format: cell-based
From the text: as §1

[8] = system: 786-O; experiment: Cell Proliferation Assay (CellTiter-Glo), 786-O; format: cell-based; settings: Homo sapiens, 786-0, 72 hr
Protocol: as §2, §3, §4

[9] = system: A2780; experiment: Cell Proliferation Assay (CellTiter-Glo), A2780; format: cell-based; settings: Homo sapiens; A2780, 72 hr
Protocol: as §2, §3, §4

[10] = system: 786-0; experiment: Combination studies, fixed ratio method, cell proliferation, 786-0; format: cell-based; settings: combination with Rapamycin
From the text: as §1

[11] = system: PC3; experiment: Cell Proliferation Assay (CellTiter-Glo), PC3; format: cell-based; settings: Homo sapiens, PC-3; PC3, 72 hr
Protocol: as §2, §3, §4

[12] = system: H69; experiment: Cell Proliferation Assay (CellTiter-Glo), H69; format: cell-based; settings: Homo sapiens, NCI-H69; H69, 72 hr
Protocol: as §2, §3, §4

[13] = system: U87MG; experiment: Cell Proliferation Assay (CellTiter-Glo), U87MG; format: cell-based; settings: Homo sapiens, U-87 MG, 72 hr
Protocol: as §2, §3, §4

[14] = system: A2780; experiment: Combination studies, fixed ratio method, cell proliferation, A2780; format: cell-based
From the text: as §1

[15] = system: CAKI-1; experiment: Combination studies, fixed ratio method, cell proliferation, CAKI-1; format: cell-based; settings: combination with Rapamycin
From the text: as §1

[16] = system: 69AR; experiment: Cell Proliferation Assay (CellTiter-Glo), 69AR; format: cell-based; settings: 72 hr
Protocol: as §2, §3, §4

[17] = system: ACHN; experiment: Combination studies, fixed ratio method, cell proliferation, ACHN; format: cell-based; settings: combination with Rapamycin
From the text: as §1

[18] = system: H1155; experiment: Combination studies, fixed ratio method, cell proliferation, H1155; format: cell-based
From the text: as §1

[19] = system: HCT116; experiment: Cell Proliferation Assay (CellTiter-Glo), HCT116; format: cell-based; settings: Homo sapiens, HCT-116; HCT116, 72 hr
Protocol: as §2, §3, §4

`O=C1Cc2c(ncnc2N2CCC(c3nc(-c4ccc(F)c(F)c4)cn3CCN3CCCC3)CC2)N1` [Example 37, 4-{4-[4-(3,4-Difluoro-phenyl)-1-(2-pyrrolidin-1-yl-ethyl)-1H-imidazol-2-yl]-piperidin-1-yl}-5,7-dihydro-pyrrolo[2,3-d]pyrimidin-6-one] showed an IC50 [1] of 13.9 µM.
In the case of `CN(C)CCn1cc(-c2ccc(F)c(C(F)(F)F)c2)nc1C1CCN(c2ncnc3c2CC(=O)N3)CC1` [Example 45, 4-{4-[1-(2-Dimethylamino-ethyl)-4-(4-fluoro-3-trifluoromethyl-phenyl)-1H-imidazol-2-yl]piperidin-1-yl}-5,7-dihydro-pyrrolo[2,3-d]-pyrimidin-6-one], the “COMBINATION INDEX AT 50% INHIBITION” value ([2]; combination with Cisplatin) is reported as 0.57, the “COMBINATION INDEX AT 50% INHIBITION” value ([2]; combination with Docetaxel) is reported as 0.94 and the “COMBINATION INDEX AT 50% INHIBITION” value ([2]; combination with Erlotinib) is reported as 0.10. For the same compound, the “COMBINATION INDEX AT 50% INHIBITION” value ([2]; combination with Gemcitabine) was 1.13, the “COMBINATION INDEX AT 50% INHIBITION” value ([2]; combination with Tasisulam) was 1.19 and the IC50 [3] was 4.9 µM. The “COMBINATION INDEX AT 50% INHIBITION” value ([4]; combination with Cisplatin) was 0.56, the “COMBINATION INDEX AT 50% INHIBITION” value ([4]; combination with Docetaxel) was 0.67 and the “COMBINATION INDEX AT 50% INHIBITION” value ([4]; combination with Erlotinib) was 0.38. The “COMBINATION INDEX AT 50% INHIBITION” value ([4]; combination with Gemcitabine) was 0.86, the “COMBINATION INDEX AT 50% INHIBITION” value ([4]; combination with Pemetrexed) was 0.97 and the IC50 [5] was 2.3 µM. For the same compound, the IC50 [6] was 7.9 µM, the “COMBINATION INDEX AT 50% INHIBITION” value ([7]; combination with Cetuximab) was 2.02 and the “COMBINATION INDEX AT 50% INHIBITION” value ([7]; combination with Irinotecan) was 0.82. The IC50 [8] was 3.4 µM, the IC50 [9] was 5.9 µM and the “COMBINATION INDEX AT 50% INHIBITION” value [10] was 0.41. The IC50 [11] was 6.2 µM, the IC50 [12] was 6.3 µM and the IC50 [13] was over 10 µM. The “COMBINATION INDEX AT 50% INHIBITION” value ([14]; combination with Cisplatin) was 1.04 and 0.64, the “COMBINATION INDEX AT 50% INHIBITION” value ([14]; combination with Doxorubicin•HCl) was 0.65 and 0.96 and the “COMBINATION INDEX AT 50% INHIBITION” value [15] was 0.33. For the same compound, the IC50 [16] was 9.4 µM, the “COMBINATION INDEX AT 50% INHIBITION” value [17] was 0.12 and the “COMBINATION INDEX AT 50% INHIBITION” value ([18]; combination with Cisplatin) was 0.58. The “COMBINATION INDEX AT 50% INHIBITION” value ([18]; combination with Erlotinib) was 0.43, the “COMBINATION INDEX AT 50% INHIBITION” value ([18]; combination with Gemcitabine) was 0.87 and the IC50 [19] was 7.5 µM.
